# Results from patent publication US12459902B2, “Crystalline forms of 4-(7-hydroxy-2-isopropyl-4-oxo-4H-quinazolin-3-yl)-benzonitrile and formulations thereof” (priority 2020, dated 2025).
# Assays:
# [1] = Water uptake on exposure to moisture (hygroscopicity); type: physicochemical; settings: for maximum water uptake: up to 95% RH at 25° C.
# [2] = type: physicochemical
# Solubility in water = settings: water at 25° C.
compound,measurement,setting,value
"CC(C)c1nc2cc(O)ccc2c(=O)n1-c1ccc(C#N)cc1 [crystal form K′, 4-(7-Hydroxy-2-isopropyl-4-oxo-4H-quinazolin-3-yl)-benzonitrile]",hygroscopicity,[1]; 25° C.,non-hygroscopic
same,maximum water uptake,[1],less than 0.2%
"CC(C)c1nc2cc(O)ccc2c(=O)n1-c1ccc(C#N)cc1 [crystal form M, 4-(7-Hydroxy-2-isopropyl-4-oxo-4H-quinazolin-3-yl)-benzonitrile]",thermodynamic stability relative to crystal form B,[2]; temperature range from 20° C. to 35° C.,thermodynamically more stable than crystal form B
same,thermodynamic stability relative to crystal form Q,[2]; temperature range from 22° C. to 35° C.,thermodynamically more stable than crystal form Q
same,thermodynamic stability relative to crystal form E,[2]; temperature range from 30° C. to 45° C.,thermodynamically more stable than crystal form E
same,hygroscopicity,[1]; 25° C.,non hygroscopic
same,maximum water uptake,[1],less than 0.1%
same,solubility in water,Solubility in water,40 µg/mL
"CC(C)c1nc2cc(O)ccc2c(=O)n1-c1ccc(C#N)cc1 [Hydrate HB, 4-(7-Hydroxy-2-isopropyl-4-oxo-4H-quinazolin-3-yl)-benzonitrile]",additional water uptake above 70% RH,"[1]; above 70% RH, at 95% RH, 25° C.",about 2.5%
same,water uptake up to 70% RH,[1]; up to 70% RH at 25° C.,slight uptake of water
"CC(C)c1nc2cc(O)ccc2c(=O)n1-c1ccc(C#N)cc1 [crystal form Q, 4-(7-Hydroxy-2-isopropyl-4-oxo-4H-quinazolin-3-yl)-benzonitrile]",conversion of equimolar suspension of crystal form M and crystal form Q,"[2]; 22° C., 30° C. and 35° C., isopropylacetate, dichloromethane, ethanol or water, 7 days",converted after 7 days completely into crystal form M
same,hygroscopicity,[1]; 25° C.,non hygroscopic
same,maximum water uptake,[1],less than 0.1%
"CC(C)c1nc2cc(O)ccc2c(=O)n1-c1ccc(C#N)cc1 [crystal form B, 4-(7-Hydroxy-2-isopropyl-4-oxo-4H-quinazolin-3-yl)-benzonitrile]",conversion of equimolar suspension of crystal form B and crystal form M,"[2]; 20° C., 30° C. and 35° C., isopropylacetate, dichloromethane, ethanol or water, 7 days",converted after 7 days almost completely into crystal form M
"CC(C)c1nc2cc(O)ccc2c(=O)n1-c1ccc(C#N)cc1 [crystal form E, 4-(7-Hydroxy-2-isopropyl-4-oxo-4H-quinazolin-3-yl)-benzonitrile]",conversion of equimolar suspension of crystal form M and crystal form E,"[2]; 30° C., 35° C. and 45° C., isopropylacetate, dichloromethane, ethanol or water, 7 days",converted after 7 days completely into Modification M
